Assay: Ex vivo biodistribution
Format: in vivo, wild-type FVB/NJ mice
Procedure: To further understand the pharmacokinetics of [^18F]2, ex vivo biodistribution was performed with different groups of mice with and without co-administration of 2. Animals were sacrificed at 5 min, 10 min and 120 min post-injection of [^18F]2. Vital organs and tissues were collected and uptake of the [^18F]2 was measured as SUV after counting the radioactivity in each harvested tissue. […] Additionally, observed higher uptake of [^18F]2 in pancreas could potentially be extended to beta cell mass imaging as a separate study. […] Therefore, it would be valuable to evaluate PET [^18F]2 in pathological conditions to finally evaluate its selectivity, binding affinity, and retention in vivo in the presence and absence of self-blocking as a future study.
Uptake of PET probe [^18F]2 (1.40 ± 0.61 MBq) was assessed with and without co-administration of 2 in 10–13-week-old wild-type FVB/NJ mice (The Jackson Laboratory, Bar Harbor, ME) after tail vein injection followed by PET imaging at 5 min, 10 min, 15 min, 20 min, 25 min, 30 min, 40 min, 50 min, 60 min and 120 min post injection. Additionally, ex vivo biodistribution was performed at 5 min, 10 min and 120 min post tail vein injection. To prepare [^18F]2 formulation for injection, 0.76 ± 0.48 µg (2.01 ± 1.27 nmol) of [^18F]2 was formulated in 10% ethanol/ 90% isotonic saline. For the blocking experiment, 20.21 ± 1.63 µg (53.75 ± 4.33 nmol) of 2 in DMSO was added to [^18F]2 (Am of 87.27 ± 77.26 (n = 13) GBq/µmole, having 0.46 ± 0.31 µg or 1.23 ± 0.83 nmol of nonradioactive 2 in it) in the final formulation volume of ~ 100 µL. This study had 12 wild type FVB/NJ male mice with body weight 31.8 ± 2.7 g and 10 wild type FVB/NJ female mice with body weight 27.0 ± 3.6 g at the time of imaging. All the animals were anesthetized for tail vein injection and PET imaging using an induction dose of 3% isoflurane and a maintenance dose of 2–3% isoflurane, which was administered via isoflurane vaporizer. All anesthetized animals were kept warm during imaging using a heat supported imaging chamber. For ex vivo biodistribution studies, animals were sacrificed at 5 min, 10 min and 120 min post-injection by cervical dislocation and tissues were harvested for gamma counting. For PET imaging studies, each animal underwent a 60 min dynamic PET scan (Framing Sequence: 1 × 10 s, 4 × 15 s, 8 × 30 s, 5 × 60 s, 4 × 300 s, 3 × 600 s) immediately post injection followed by 10 min static PET scan at 120 min post-injection on small animal micro-PET/X-ray system, Genesys 4 (Sofie BioSystems, Dulles, VA, USA). The PET images were reconstructed using Genesys 4 imaging software installed on the imaging system. The obtained PET images were visualized and analyzed using image analysis software, “Amide's a medical image data examiner-AMIDE”[53]. PET images were normalized to the standardized uptake value (SUV) where; SUV=ConcentrationofdoseintissueμCi/g×Weightoftheanimal(g)/Injecteddose(μCi).

## O=C(Nc1cnccc1-c1ccc([18F])cc1)c1ccnc(NC(=O)C2CC2)c1 [[^18F]2]
Adipose, 5 min post-injection, [^18F]2 + 20 µg of 2
  SUV, Average ± SD: 0.33 ± 0.05
Adipose, 5 min post-injection, [^18F]2 alone
  SUV, Average ± SD: 0.29 ± 0.09
Adipose, 10 min post-injection, [^18F]2 + 20 µg of 2
  SUV, Average ± SD: 0.38 ± 0.05
Adipose, 10 min post-injection, [^18F]2 alone
  SUV, Average ± SD: 0.24 ± 0.07
Adipose, 120 min post-injection, [^18F]2 + 20 µg of 2
  SUV, Average ± SD: 0.25 ± 0.05
Adipose, 120 min post-injection, [^18F]2 alone
  SUV, Average ± SD: 0.14 ± 0.04
Bladder, 5 min post-injection, [^18F]2 + 20 µg of 2
  SUV, Average ± SD: 0.71 ± 0.09
Bladder, 5 min post-injection, [^18F]2 alone
  SUV, Average ± SD: 0.40 ± 0.12
Bladder, 10 min post-injection, [^18F]2 + 20 µg of 2
  SUV, Average ± SD: 0.84 ± 0.13
Bladder, 10 min post-injection, [^18F]2 alone
  SUV, Average ± SD: 0.48 ± 0.08
Bladder, 120 min post-injection, [^18F]2 + 20 µg of 2
  SUV, Average ± SD: 0.73 ± 0.54
Bladder, 120 min post-injection, [^18F]2 alone
  SUV, Average ± SD: 1.58 ± 1.90
Blood, 5 min post-injection, [^18F]2 + 20 µg of 2
  SUV, Average ± SD: 0.93 ± 0.14
Blood, 5 min post-injection, [^18F]2 alone
  SUV, Average ± SD: 0.38 ± 0.18
Blood, 10 min post-injection, [^18F]2 + 20 µg of 2
  SUV, Average ± SD: 0.79 ± 0.12
Blood, 10 min post-injection, [^18F]2 alone
  SUV, Average ± SD: 0.34 ± 0.02
Blood, 120 min post-injection, [^18F]2 + 20 µg of 2
  SUV, Average ± SD: 0.43 ± 0.07
Blood, 120 min post-injection, [^18F]2 alone
  SUV, Average ± SD: 0.15 ± 0.07
Bone, 5 min post-injection, [^18F]2 + 20 µg of 2
  SUV, Average ± SD: 0.48 ± 0.02
Bone, 5 min post-injection, [^18F]2 alone
  SUV, Average ± SD: 0.30 ± 0.14
Bone, 10 min post-injection, [^18F]2 + 20 µg of 2
  SUV, Average ± SD: 0.50 ± 0.03
Bone, 10 min post-injection, [^18F]2 alone
  SUV, Average ± SD: 0.29 ± 0.04
Bone, 120 min post-injection, [^18F]2 + 20 µg of 2
  SUV, Average ± SD: 1.22 ± 0.31
Bone, 120 min post-injection, [^18F]2 alone
  SUV, Average ± SD: 1.08 ± 0.33
CN (caudate nucleus), 5 min post-injection, [^18F]2 + 20 µg of 2
  SUV, Average ± SD: 0.65 ± 0.04
CN (caudate nucleus), 5 min post-injection, [^18F]2 alone
  SUV, Average ± SD: 0.87 ± 0.48
CN (caudate nucleus), 10 min post-injection, [^18F]2 + 20 µg of 2
  SUV, Average ± SD: 0.45 ± 0.05
CN (caudate nucleus), 10 min post-injection, [^18F]2 alone
  SUV, Average ± SD: 0.34 ± 0.07
CN (caudate nucleus), 120 min post-injection, [^18F]2 + 20 µg of 2
  SUV, Average ± SD: 0.19 ± 0.03
CN (caudate nucleus), 120 min post-injection, [^18F]2 alone
  SUV, Average ± SD: 0.06 ± 0.02
Heart, 5 min post-injection, [^18F]2 + 20 µg of 2
  SUV, Average ± SD: 1.38 ± 0.11
Heart, 5 min post-injection, [^18F]2 alone
  SUV, Average ± SD: 0.69 ± 0.36
Heart, 10 min post-injection, [^18F]2 + 20 µg of 2
  SUV, Average ± SD: 1.14 ± 0.16
Heart, 10 min post-injection, [^18F]2 alone
  SUV, Average ± SD: 0.45 ± 0.02
Heart, 120 min post-injection, [^18F]2 + 20 µg of 2
  SUV, Average ± SD: 0.48 ± 0.12
Heart, 120 min post-injection, [^18F]2 alone
  SUV, Average ± SD: 0.16 ± 0.08
Left kidney, 5 min post-injection, [^18F]2 + 20 µg of 2
  SUV, Average ± SD: 2.47 ± 0.30
Left kidney, 5 min post-injection, [^18F]2 alone
  SUV, Average ± SD: 1.37 ± 0.69
Left kidney, 10 min post-injection, [^18F]2 + 20 µg of 2
  SUV, Average ± SD: 2.27 ± 0.32
Left kidney, 10 min post-injection, [^18F]2 alone
  SUV, Average ± SD: 1.01 ± 0.16
Left kidney, 120 min post-injection, [^18F]2 + 20 µg of 2
  SUV, Average ± SD: 2.18 ± 0.51
Left kidney, 120 min post-injection, [^18F]2 alone
  SUV, Average ± SD: 0.54 ± 0.06
Lung, 5 min post-injection, [^18F]2 + 20 µg of 2
  SUV, Average ± SD: 1.17 ± 0.15
Lung, 5 min post-injection, [^18F]2 alone
  SUV, Average ± SD: 0.65 ± 0.35
Lung, 10 min post-injection, [^18F]2 + 20 µg of 2
  SUV, Average ± SD: 1.08 ± 0.15
Lung, 10 min post-injection, [^18F]2 alone
  SUV, Average ± SD: 0.48 ± 0.03
Lung, 120 min post-injection, [^18F]2 + 20 µg of 2
  SUV, Average ± SD: 0.52 ± 0.09
Lung, 120 min post-injection, [^18F]2 alone
  SUV, Average ± SD: 0.18 ± 0.07
Muscle, 5 min post-injection, [^18F]2 + 20 µg of 2
  SUV, Average ± SD: 0.90 ± 0.17
Muscle, 5 min post-injection, [^18F]2 alone
  SUV, Average ± SD: 0.47 ± 0.23
Muscle, 10 min post-injection, [^18F]2 + 20 µg of 2
  SUV, Average ± SD: 0.72 ± 0.09
Muscle, 10 min post-injection, [^18F]2 alone
  SUV, Average ± SD: 0.43 ± 0.03
Muscle, 120 min post-injection, [^18F]2 + 20 µg of 2
  SUV, Average ± SD: 0.32 ± 0.06
Muscle, 120 min post-injection, [^18F]2 alone
  SUV, Average ± SD: 0.11 ± 0.04
Pancreas, 5 min post-injection, [^18F]2 + 20 µg of 2
  SUV, Average ± SD: 1.83 ± 0.16
Pancreas, 5 min post-injection, [^18F]2 alone
  SUV, Average ± SD: 1.27 ± 0.56
Pancreas, 10 min post-injection, [^18F]2 + 20 µg of 2
  SUV, Average ± SD: 1.53 ± 0.15
Pancreas, 10 min post-injection, [^18F]2 alone
  SUV, Average ± SD: 0.85 ± 0.23
Pancreas, 120 min post-injection, [^18F]2 + 20 µg of 2
  SUV, Average ± SD: 0.57 ± 0.15
Pancreas, 120 min post-injection, [^18F]2 alone
  SUV, Average ± SD: 0.22 ± 0.09
Right kidney, 5 min post-injection, [^18F]2 + 20 µg of 2
  SUV, Average ± SD: 2.46 ± 0.18
Right kidney, 5 min post-injection, [^18F]2 alone
  SUV, Average ± SD: 1.34 ± 0.69
Right kidney, 10 min post-injection, [^18F]2 + 20 µg of 2
  SUV, Average ± SD: 2.30 ± 0.35
Right kidney, 10 min post-injection, [^18F]2 alone
  SUV, Average ± SD: 0.97 ± 0.12
Right kidney, 120 min post-injection, [^18F]2 + 20 µg of 2
  SUV, Average ± SD: 2.30 ± 0.81
Right kidney, 120 min post-injection, [^18F]2 alone
  SUV, Average ± SD: 0.48 ± 0.15
Skin, 5 min post-injection, [^18F]2 + 20 µg of 2
  SUV, Average ± SD: 0.66 ± 0.16
Skin, 5 min post-injection, [^18F]2 alone
  SUV, Average ± SD: 0.46 ± 0.17
Skin, 10 min post-injection, [^18F]2 + 20 µg of 2
  SUV, Average ± SD: 0.66 ± 0.10
Skin, 10 min post-injection, [^18F]2 alone
  SUV, Average ± SD: 0.52 ± 0.16
Skin, 120 min post-injection, [^18F]2 + 20 µg of 2
  SUV, Average ± SD: 0.71 ± 0.66
Skin, 120 min post-injection, [^18F]2 alone
  SUV, Average ± SD: 0.10 ± 0.04
Spleen, 5 min post-injection, [^18F]2 + 20 µg of 2
  SUV, Average ± SD: 1.00 ± 0.05
Spleen, 5 min post-injection, [^18F]2 alone
  SUV, Average ± SD: 0.74 ± 0.27
Spleen, 10 min post-injection, [^18F]2 + 20 µg of 2
  SUV, Average ± SD: 1.14 ± 0.50
Spleen, 10 min post-injection, [^18F]2 alone
  SUV, Average ± SD: 0.55 ± 0.20
Spleen, 120 min post-injection, [^18F]2 + 20 µg of 2
  SUV, Average ± SD: 0.44 ± 0.11
Spleen, 120 min post-injection, [^18F]2 alone
  SUV, Average ± SD: 0.15 ± 0.07
Stomach, 5 min post-injection, [^18F]2 + 20 µg of 2
  SUV, Average ± SD: 0.86 ± 0.32
Stomach, 5 min post-injection, [^18F]2 alone
  SUV, Average ± SD: 0.80 ± 0.24
Stomach, 10 min post-injection, [^18F]2 + 20 µg of 2
  SUV, Average ± SD: 0.97 ± 0.63
Stomach, 10 min post-injection, [^18F]2 alone
  SUV, Average ± SD: 0.53 ± 0.09
Stomach, 120 min post-injection, [^18F]2 + 20 µg of 2
  SUV, Average ± SD: 1.28 ± 1.08
Stomach, 120 min post-injection, [^18F]2 alone
  SUV, Average ± SD: 0.68 ± 0.41
Urine, 5 min post-injection, [^18F]2 + 20 µg of 2
  SUV, Average ± SD: 0.20 ± 0.29
Urine, 5 min post-injection, [^18F]2 alone
  SUV, Average ± SD: 0.10 ± 0.10
Urine, 10 min post-injection, [^18F]2 + 20 µg of 2
  SUV, Average ± SD: 0.85 ± 0.79
Urine, 10 min post-injection, [^18F]2 alone
  SUV, Average ± SD: 1.78 ± 1.21
Urine, 120 min post-injection, [^18F]2 + 20 µg of 2
  SUV, Average ± SD: 3.20 ± 2.32
Urine, 120 min post-injection, [^18F]2 alone
  SUV, Average ± SD: 20.55 ± 8.76
liver, 5 min post-injection, [^18F]2 + 20 µg of 2
  SUV, Average ± SD: 8.37 ± 0.36
liver, 5 min post-injection, [^18F]2 alone
  SUV, Average ± SD: 11.85 ± 0.33
liver, 10 min post-injection, [^18F]2 + 20 µg of 2
  SUV, Average ± SD: 7.85 ± 0.41
liver, 10 min post-injection, [^18F]2 alone
  SUV, Average ± SD: 14.43 ± 1.48
liver, 120 min post-injection, [^18F]2 + 20 µg of 2
  SUV, Average ± SD: 4.00 ± 0.22
liver, 120 min post-injection, [^18F]2 alone
  SUV, Average ± SD: 3.08 ± 1.44

Reference: paper PMC11237012, “Synthesis and preliminary evaluation of novel PET probes for GSK-3 imaging” (Scientific Reports, 2024)
